Reference: patent US20130202629A1, “USES OF PHOSPHOLIPID CONJUGATES OF SYNTHETIC TLR7 AGONISTS” (The Regents of the University of California, priority 2010, published 2013)

Tested on: C57BL/6 mice
Type: in vivo, mouse
Procedure: Anti-OVA antibodies of the IgG subclasses (and in some embodiments specifically IgG1 and IgG2) were measured by ELISA, as described in Cho, H. J et al., “Immunostimulatory DNA-based vaccines induce cytotoxic lymphocyte activity by a T-helper cell-independent mechanism” [see comments], Nat. Each ELISA plate contained a titration of a previously quantitated serum to generate a standard curve. The titer of this standard was calculated as the highest dilution of serum that gave an absorbance reading that was double the background. The various sera samples were tested at a 1:100 dilution. The results are expressed in units per mL, calculated based on the units/mL of the standard serum, and represent the mean±SEM of five animals in each group. * and T denote P<0.05 and P<0.01 by One-way ANOVA compared to the mice immunized with OVA mixed with vehicle, respectively.
Spleenocytes were prepared from the harvested spleens. […] The levels of IFNα in the culture supernatants were measured by ELISA (BD Bioscience PharMingen) as per the manufacturer's instructions (Kobayashi, H et al., Prepriming: a novel approach to DNA-based vaccination and immunomodulation”, Springer Semin. Immunopathol., 22:85 (2000)), and the results illustrated in FIG. 5C. Average total spleen cell number in each group were calculated and compared to the PBS-immunized groups to monitor the spleen cell proliferation. Data are mean±SEM of five mice and are representative of three independent experiments.
The efficiency of adjuvanticity was assessed by measurement of the levels and isotypes of the antigen-specific IgG that the vaccine induces, in particular IgG1 and IgG2 (Mosmann, T. R., and Coffman, R. L., ‘TH1 and TH2 cells: different patterns of lymphokine secretion lead to different functional properties’, Annual Review Immunology, 7:145 (1989)). […] ISS-ODN was used as a potent Th1 adjuvant positive control.

**Q.** How did the “adjuvant activity when administered with the antigen ovalbumin” value (mouse, in vivo) turn out when `CCCCCCCC/C=C\CCCCCCCC(=O)OCC(COP(=O)(O)OCCNC(=O)c1ccc(Cn2c(=O)[nH]c3c(N)nc(OCCOC)nc32)cc1)OC(=O)CCCCCCC/C=C\CCCCCCCC` (stereo not drawn) [Compound 6, 2-(4-((6-amino-2-(2-methoxyethoxy)-8-oxo-7H-purin-9(8H)-yl)methyl)benzamido)ethyl 2,3-bis(oleoyloxy)propyl phosphate] was run?
**A.** potent adjuvant

**Q.** What about the “earliest induction of OVA-specific antibodies of the IG subclass (FIG. 5A)” value (s.c. 20 μg OVA + 10 nmol conjugate on days 0 and 7) of the same compound?
**A.** 14 days

**Q.** What about the “OVA-specific IFN secretion by spleen cells” value (splenocytes of day 56 restimulated with OVA (FIG. 5C)) of the same compound?
**A.** enhanced
